Reference: the NIST ThermoML archive (doi:10.1021/acs.jced.8b00438)

Test: xn = mol fraction of the nth substance listed
Conditions: 100 kPa, Liquid; for mass density: Vibrating tube method; for viscosity: Falling or rolling sphere viscometry

C1CCC(C2CCCCC2)CC1 [1,1'-bicyclohexyl] + CCCCO
Conditions | mass density, 313.15 K [kg/m3] | mass density, 318.15 K [kg/m3] | mass density, 323.15 K [kg/m3] | mass density, 328.15 K [kg/m3] | mass density, 333.15 K [kg/m3] | viscosity, 318.15 K [mPa·s] | viscosity, 323.15 K [mPa·s] | viscosity, 328.15 K [mPa·s] | viscosity, 333.15 K [mPa·s]
x1 = 0.1007 | 808.22 | 804.27 | 800.27 | 796.21 | 792.1 | 1.563 | 1.402 | 1.263 | 1.141
x1 = 0.2009 | 819.81 | 815.86 | 811.87 | 807.82 | 803.73 | 1.582 | 1.423 | 1.285 | 1.164
x1 = 0.3021 | 829.63 | 825.69 | 821.71 | 817.69 | 813.63 | 1.61 | 1.452 | 1.315 | 1.196
x1 = 0.4007 | 837.81 | 833.9 | 829.95 | 825.97 | 821.94 | 1.656 | 1.498 | 1.36 | 1.24
x1 = 0.5038 | 845.22 | 841.34 | 837.43 | 833.49 | 829.52 | 1.704 | 1.545 | 1.407 | 1.286
x1 = 0.5992 | 851.3 | 847.45 | 843.58 | 839.69 | 835.77 | 1.769 | 1.608 | 1.466 | 1.342
x1 = 0.7006 | 857.05 | 853.25 | 849.43 | 845.59 | 841.73 | 1.853 | 1.685 | 1.54 | 1.411
x1 = 0.7983 | 862.13 | 858.37 | 854.6 | 850.82 | 847.02 | 1.966 | 1.789 | 1.635 | 1.499
x1 = 0.8835 | 866.09 | 862.38 | 858.66 | 854.93 | 851.2 | 2.047 | 1.863 | 1.702 | 1.562
x1 = 1 | 871.66 | 868.08 | 864.5 | 860.93 | 857.35 | 2.296 | 2.092 | 1.915 | 1.762
